The target in test [1] is T1, recombinant human B1 receptors (Homo sapiens, UniProt P46663).
T1 construct: host or cells: CHO (CHO-B1)
T1 sequence (P46663 1-353): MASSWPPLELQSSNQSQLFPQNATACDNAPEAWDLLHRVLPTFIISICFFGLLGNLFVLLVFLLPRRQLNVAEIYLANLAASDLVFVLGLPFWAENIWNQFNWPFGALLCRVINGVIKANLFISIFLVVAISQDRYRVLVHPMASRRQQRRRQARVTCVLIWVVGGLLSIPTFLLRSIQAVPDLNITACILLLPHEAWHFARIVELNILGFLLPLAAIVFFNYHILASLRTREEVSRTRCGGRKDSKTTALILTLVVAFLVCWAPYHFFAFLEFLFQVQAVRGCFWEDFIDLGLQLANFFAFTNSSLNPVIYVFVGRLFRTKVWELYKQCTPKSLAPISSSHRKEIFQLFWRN
In words: Functional assay: antagonist potency by cytosolic calcium measurement (plate reader fluorimeter) in CHO-B1 cells, agonist LysDABK. The test is classed as cell-based. Conditions: CHO-B1 cells, inhibition of LysDABK (EC80)-evoked [Ca2+]i elevation; read-out: B1 func. In outline: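 IC50 is the concentration giving half-maximal inhibition of the LysDABK (EC80) calcium response, fitted from at least three experiments. CHO cells stably expressing human B1 were dye-loaded, exposed to compound for 20-25 min, then read by fluo-4 fluorescence (ΔF/F) at 37 °C.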

The target of test [2] is T2, human recombinant bradykinin B1 receptor (Homo sapiens, UniProt P46663).
T2 construct: host or cells: CHO cells, clone hB1-A5
T2 sequence (P46663 1-353): T1 sequence (P46663 1-353)
In words: Human recombinant bradykinin B1 receptor competitive radioligand binding. Conditions: hB1 expressed in CHO cells, [3H]-[Des-Arg10] Kallidin radioligand; read-out: B1 binding. In outline: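 Membranes from CHO cells expressing hB1 (20 μg protein/tube) incubated 15 min at 25° C. with [3,4-prolyl-3,4-^3H(N)]-[Des-Arg^10] Kallidin; nonspecific binding defined with 10 μM Lys-des-Arg^9-Bradykinin. Bound label collected by filtration and counted. IC50 from ≥7-point curves in triplicate; Ki by Cheng-Prusoff.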

SMILES strings stand for the structures.

On to `Cc1nc(-c2c(Cl)c3cc(Cl)ccc3n2-c2ccc(CNC(=O)C3(NC(=O)C(F)(F)F)CC3)cc2)no1` [Example 65, 1-(2,2,2-Trifluoro-acetylamino)-cyclopropanecarboxylic acid 4-[3,5-dichloro-2-(5-methyl-[1,2,4]oxadiazo 1-3-yl)-indol-1-yl]-benzylamide], for which the IC50 in test [1] is under 20 nM. In addition, the Ki in test [2] was under 20 nM.

On to `Cc1nc(-c2c(Cl)c3ccccc3n2-c2ccc(CNC(=O)C3(NC(=O)c4cccc(I)c4)CC3)cc2)no1` [Example 176, N-(1-{4-[3-Chloro-2-(5-methyl-[1,2,4]oxadiazol-3-yl)-indol-1-yl]-benzylcarbamoyl}-cyclopropyl)-3-iodo-benzamide], for which, in test [1], the IC50 fell in the range of 20 to 100 nM. The Ki in test [2] fell in the range of 20 to 100 nM.

On to `COc1ccc2c(c1)cc(-c1nc(C)no1)n2-c1ccc(CNC(=O)C2(NC(=O)c3cc(OC)no3)CC2)cc1` [Example 80, 3-Methoxy-isoxazole-5-carboxylic acid (1-{4-[5-methoxy-2-(3-methyl-[1,2,4]oxadiazol-5-yl)-indol-1-yl]-benzylcarbamoyl}-cyclopropyl)-amide], for which the IC50 in test [1] is under 20 nM. The Ki in test [2] was under 20 nM.

For `Cc1nc(-c2c(Cl)c3ccccc3n2-c2ccc(CNC(=O)C3(NC(=O)c4cnc5ccccc5c4)CC3)cc2)no1` [Example 159, Quinoline-3-carboxylic acid (1-{4-[3-chloro-2-(5-methyl-[1,2,4]oxadiazol-3-yl)-indol-1-yl]-benzylcarbamoyl}-cyclopropyl)-amide], the IC50 in test [1] is under 20 nM. The Ki in test [2] was under 20 nM.

In the case of `COC(=O)c1cc2ccccc2n1-c1ccc(CNC(=O)C2(NC(=O)c3cc(OC)no3)CC2)cc1` [Example 14, 1-{4-[({1-[(3-Methoxy-isoxazole-5-carbonyl)-amino]-cyclopropanecarbonyl}-amino)-methyl]-phenyl}-1H-indole-2-carboxylic acid methyl ester], the IC50 in test [1] is under 20 nM. Further, in test [2], the Ki is under 20 nM.

Consider `Cc1cnc(C(=O)NC2(C(=O)NCc3ccc(-n4c(-c5nnn(C)n5)c(Cl)c5ccccc54)cc3)CC2)cn1` [Example 25, 5-Methyl-pyrazine-2-carboxylic acid (1-{4-[3-chloro-2-(2-methyl-2H-tetrazol-5-yl)-indol-1-yl]-benzylcarbamoyl}-cyclopropyl)-amide], for which the IC50 in test [1] was in the range of 20 to 100 nM. Further, the Ki in test [2] is under 20 nM.

Consider `Cc1nc(-c2c(Cl)c3ccccc3n2-c2ccc(CNC(=O)C3(NC(=O)c4cccc(C#N)c4)CC3)cc2)no1` [Example 146, N-(1-{4-[3-Chloro-2-(5-methyl-[1,2,4]oxadiazol-3-yl)-indol-1-yl]-benzylcarbamoyl}-cyclopropyl)-3-cyano-benzamide], for which, in test [1], the IC50 is under 20 nM. Besides, in test [2], the Ki is under 20 nM.

For `COc1cc(C(=O)NC2(C(=O)NCc3ccc(-n4c(-c5nc(C)no5)c(Cl)c5ccccc54)cn3)CC2)on1` [Example 58, 3-Methoxy-isoxazole-5-carboxylic acid [1-({5-[3-chloro-2-(3-methyl-[1,2,4]oxadiazol-5-yl)-indol-1-yl]-pyridin-2-ylmethyl}-carbamoyl)-cyclopropyl]-amide], the IC50 in test [1] was under 20 nM. Besides, in test [2], the Ki was under 20 nM.

With `COc1cc(C(=O)NC2(C(=O)NCc3ccc(-n4c(-c5nnn(C)n5)c(Cl)c5cc(F)ccc54)cn3)CC2)on1` [Example 59, 3-Methoxy-isoxazole-5-carboxylic acid [1-({5-[3-chloro-5-fluoro-2-(2-methyl-2H-tetrazol-5-yl)-indol-1-yl]-pyridin-2-ylmethyl}-carbamoyl)-cyclopropyl]-amide], the IC50 in test [1] was under 20 nM. In addition, the Ki in test [2] was under 20 nM.

Turning to `Cc1noc(-c2c(Cl)c3ccccc3n2-c2ccc(CNC(=O)C3(NC(=O)c4ccnc(F)c4)CC3)cc2)n1` [Example 113, N-(1-{4-[3-Chloro-2-(3-methyl-[1,2,4]oxadiazol-5-yl)-indol-1-yl]-benzylcarbamoyl}-cyclopropyl)-2-fluoro-isonicotinamide], the IC50 in test [1] is under 20 nM. In addition, the Ki in test [2] is under 20 nM.

Take `Cc1nc(-c2cc3cc(Cl)ccc3n2-c2ccc(CNC(=O)C3(NC(=O)CC(F)(F)F)CC3)cc2)no1` [Example 127, 1-(3,3,3-Trifluoro-propionylamino)-cyclopropanecarboxylic acid 4-[5-chloro-2-(5-methyl-[1,2,4]oxadiazol-3-yl)-indol-1-yl]-benzylamide]: in test [1], the IC50 is under 20 nM. Further, the Ki in test [2] is under 20 nM.

In the case of `COc1cc(C(=O)NC2(C(=O)NCc3ccc(-n4c(-c5noc(C)n5)cc5cc(F)ccc54)cn3)CC2)on1` [Example 61, 3-Methoxy-isoxazole-5-carboxylic acid [1-({5-[5-fluoro-2-(5-methyl-[1,2,4]oxadiazol-3-yl)-indol-1-yl]-pyridin-2-ylmethyl}-carbamoyl)-cyclopropyl]-amide], the IC50 in test [1] is under 20 nM. Besides, in test [2], the Ki is under 20 nM.

`COc1cc(C(=O)NC2(C(=O)NCc3ccc(-n4c(-c5noc(C)n5)c(Cl)c5cc(F)ccc54)cc3F)CC2)on1` [Example 197, 3-Methoxy-isoxazole-5-carboxylic acid (1-{4-[3-chloro-5-fluoro-2-(5-methyl-[1,2,4]oxadiazol-3-yl)-indol-1-yl]-2-fluoro-benzylcarbamoyl}-cyclopropyl)-amide]: the IC50 in test [1] is under 20 nM. In test [2], the Ki was under 20 nM.

As to `Cc1nc(-c2c(Cl)c3ccccc3n2-c2ccc(CNC(=O)C3(NC(=O)c4cncc(C(F)(F)F)c4)CC3)c(F)c2)no1` [Example 111, N-(1-{4-[3-Chloro-2-(5-methyl-[1,2,4]oxadiazol-3-yl)-indol-1-yl]-2-fluoro-benzylcarbamoyl}-cyclopropyl)-5-trifluoromethyl-nicotinamide], the IC50 in test [1] is under 20 nM. The Ki in test [2] is under 20 nM.

On to `Cc1cc(C(=O)NC2(C(=O)NCc3ccc(-n4c(-c5noc(C)n5)c(Cl)c5ccccc54)cc3)CC2)n[nH]1` [Example 152, 5-Methyl-1H-pyrazole-3-carboxylic acid (1-{4-[3-chloro-2-(5-methyl-[1,2,4]oxadiazol-3-yl)-indol-1-yl]-benzylcarbamoyl}-cyclopropyl)-amide], for which the IC50 in test [1] was 20 to 100 nM. Moreover, the Ki in test [2] was under 20 nM.

`Cc1nnc(-c2c(Cl)c3ccccc3n2-c2ccc(CNC(=O)C3(NC(=O)c4cnc5ccccc5c4)CC3)cc2)o1` [Example 182, Quinoline-3-carboxylic acid (1-{4-[3-chloro-2-(5-methyl-[1,3,4]oxadiazol-2-yl)-indol-1-yl]-benzylcarbamoyl}-cyclopropyl)-amide]: the IC50 in test [1] is under 20 nM. Further, the Ki in test [2] is under 20 nM.

As for `Cn1nnc(-c2c(Cl)c3ccccc3n2-c2ccc(CNC(=O)C3(NC(=O)C(F)(F)F)CC3)cc2)n1` [Example 1, 1-(2,2,2-Trifluoro-acetylamino)-cyclopropanecarboxylic acid 4-[3-chloro-2-(2-methyl-2H-tetrazol-5-yl)-indol-1-yl]-benzylamide], the IC50 in test [1] was under 20 nM. In test [2], the Ki is under 20 nM.

For `Cn1nnc(-c2c(Cl)c3ccccc3n2-c2ccc(CNC(=O)C3(NC(=O)c4cccc(F)c4)CC3)cc2)n1` [Example 31, N-(1-{4-[3-chloro-2-(2-methyl-2H-tetrazol-5-yl)-indol-1-yl]-benzylcarbamoyl}-cyclopropyl)-3-fluoro-benzamide], in test [1], the IC50 is under 20 nM. The Ki in test [2] was under 20 nM.

On to `CSc1ccc(C(=O)NC2(C(=O)NCc3ccc(-n4c(-c5noc(C)n5)c(Cl)c5ccccc54)cc3)CC2)s1` [Example 173, 5-Methylsulfanyl-thiophene-2-carboxylic acid (1-{4-[3-chloro-2-(5-methyl-[1,2,4]oxadiazol-3-yl)-indol-1-yl]-benzylcarbamoyl}-cyclopropyl)-amide], for which the IC50 in test [1] was in the range of 20 to 100 nM. Moreover, in test [2], the Ki was under 20 nM.

In the case of `Cc1nc(-c2c(Cl)c3ccccc3n2-c2ccc(CNC(=O)C3(NC(=O)c4scnc4C)CC3)cc2)no1` [Example 149, 4-Methyl-thiazole-5-carboxylic acid (1-{4-[3-chloro-2-(5-methyl-[1,2,4]oxadiazol-3-yl)-indol-1-yl]-benzylcarbamoyl}-cyclopropyl)-amide], the IC50 in test [1] fell in the range of 20 to 100 nM. Also, the Ki in test [2] was under 20 nM.

Turning to `COc1cc(C(=O)NC2(C(=O)NCc3ccc(-n4c(C(=O)N(C)C)c(Cl)c5ccccc54)cc3)CC2)on1` [Example 35, 3-Chloro-1-{4-[({1-[(3-methoxy-isoxazole-5-carbonyl)-amino]-cyclopropane-carbonyl}-amino)-methyl]-phenyl}-1H-indole-2-carboxylic acid dimethylamide], the IC50 in test [1] lay in the range of 20 to 100 nM. The Ki in test [2] is under 20 nM.

In the case of `COc1cc(C(=O)NC2(C(=O)N[C@H](C)c3ccc(-n4c(-c5noc(C)n5)c(Cl)c5ccccc54)cc3)CC2)on1` [Example 41, (R)-3-Methoxy-isoxazole-5-carboxylic acid [1-(1-{4-[3-chloro-2-(5-methyl-[1,2,4]oxadiazol-3-yl)-indol-1-yl]-phenyl}-ethylcarbamoyl)-cyclopropyl]-amide], in test [1], the IC50 was under 20 nM. Further, the Ki in test [2] was under 20 nM.
